Source: patent US7294637B2 (Sepracor, Inc., priority 2000, dated 2007)
pEC50, pIC50: −log10 of the molar value. Like-named read-outs stand apart in the source and are kept apart here.

Columns and labels:
mouse = assay: Acute toxicity assessment, maximum tolerated dose i.v., mouse; format: in vivo; conditions: mice
Protocol: (§1) An in vivo evaluation was carried out to determine the maximum tolerated dose of numerous test compounds in two animal species (mouse and rat). The compounds were administered i.v. and the animals were then observed for 72 h. Compounds 114, 115, 113, 110, 124, 125, 129, and 130 were solubilized in 5% dextrose (w/v)/polyethylene glycol 400 (4:1 v/v). Compounds 126, 127, 131, and 132 were solubilized in 10% hydroxypropyl-β-cyclodextrin (w/v).

dopamine transporter = dopamine transporter (Homo sapiens, UniProt Q01959); assay: DA uptake: displacement of dopamine ligands in vitro (methods of Gu et al.); conditions: DA Uptake, Uptake Profile (IC50, nM), displacement of dopamine ligands in vitro
Sequence of dopamine transporter (Q01959 whole entry): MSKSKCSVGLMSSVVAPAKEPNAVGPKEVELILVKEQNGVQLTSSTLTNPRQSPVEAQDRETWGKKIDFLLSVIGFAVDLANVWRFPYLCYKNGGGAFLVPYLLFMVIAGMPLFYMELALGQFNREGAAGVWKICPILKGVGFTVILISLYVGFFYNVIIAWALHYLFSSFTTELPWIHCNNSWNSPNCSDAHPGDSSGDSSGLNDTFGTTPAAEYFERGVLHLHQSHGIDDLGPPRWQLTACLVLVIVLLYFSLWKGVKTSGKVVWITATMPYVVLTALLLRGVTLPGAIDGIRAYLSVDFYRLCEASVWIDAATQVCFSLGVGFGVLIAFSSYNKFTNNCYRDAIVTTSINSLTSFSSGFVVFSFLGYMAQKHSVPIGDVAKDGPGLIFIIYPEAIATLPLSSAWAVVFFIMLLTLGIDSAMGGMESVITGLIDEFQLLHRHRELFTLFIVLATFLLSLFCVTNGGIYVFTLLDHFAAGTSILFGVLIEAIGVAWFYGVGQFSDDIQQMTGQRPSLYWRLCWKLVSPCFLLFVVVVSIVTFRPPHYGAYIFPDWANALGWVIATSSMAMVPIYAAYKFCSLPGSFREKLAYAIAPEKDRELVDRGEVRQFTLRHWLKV

[1] = biological target: T1, norepinephrine transporter (Homo sapiens, UniProt P23975); assay: NE uptake: displacement of norephinephrine ligands in vitro (methods of Galli et al.); format: binding; conditions: for IC50: NE Uptake, Uptake Profile (IC50, nM); for pIC50: read-out: NE Uptake, Uptake Profile (IC50)
T1 sequence (P23975 whole entry): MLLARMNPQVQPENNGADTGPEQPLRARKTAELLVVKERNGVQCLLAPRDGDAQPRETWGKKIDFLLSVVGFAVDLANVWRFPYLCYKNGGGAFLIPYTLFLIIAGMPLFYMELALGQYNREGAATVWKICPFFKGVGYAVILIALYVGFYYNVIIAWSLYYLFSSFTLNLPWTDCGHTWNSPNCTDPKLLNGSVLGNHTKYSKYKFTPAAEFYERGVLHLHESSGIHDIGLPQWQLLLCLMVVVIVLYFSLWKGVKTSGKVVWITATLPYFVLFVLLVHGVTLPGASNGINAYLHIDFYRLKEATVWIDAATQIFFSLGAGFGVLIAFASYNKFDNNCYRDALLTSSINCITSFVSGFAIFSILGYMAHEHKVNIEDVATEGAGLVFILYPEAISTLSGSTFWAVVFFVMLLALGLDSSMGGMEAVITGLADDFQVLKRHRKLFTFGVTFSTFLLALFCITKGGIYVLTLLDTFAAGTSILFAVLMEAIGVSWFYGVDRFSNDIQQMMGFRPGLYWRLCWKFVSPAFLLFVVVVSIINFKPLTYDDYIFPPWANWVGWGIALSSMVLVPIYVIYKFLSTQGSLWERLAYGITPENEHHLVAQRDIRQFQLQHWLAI

rat = assay: Acute toxicity assessment, maximum tolerated dose i.v., rat; format: in vivo; conditions: rats
Protocol: as §1

serotonin transporter [2] = biological target: T2, serotonin transporter (Homo sapiens, UniProt P31645); assay: 5-HT uptake: displacement of serotonin ligands in vitro (methods of Gu et al.); format: binding; conditions: for pIC50: displacement of serotonin ligands in vitro, read-out: 5-HT Uptake, Uptake Profile (IC50)
T2 sequence (P31645 whole entry): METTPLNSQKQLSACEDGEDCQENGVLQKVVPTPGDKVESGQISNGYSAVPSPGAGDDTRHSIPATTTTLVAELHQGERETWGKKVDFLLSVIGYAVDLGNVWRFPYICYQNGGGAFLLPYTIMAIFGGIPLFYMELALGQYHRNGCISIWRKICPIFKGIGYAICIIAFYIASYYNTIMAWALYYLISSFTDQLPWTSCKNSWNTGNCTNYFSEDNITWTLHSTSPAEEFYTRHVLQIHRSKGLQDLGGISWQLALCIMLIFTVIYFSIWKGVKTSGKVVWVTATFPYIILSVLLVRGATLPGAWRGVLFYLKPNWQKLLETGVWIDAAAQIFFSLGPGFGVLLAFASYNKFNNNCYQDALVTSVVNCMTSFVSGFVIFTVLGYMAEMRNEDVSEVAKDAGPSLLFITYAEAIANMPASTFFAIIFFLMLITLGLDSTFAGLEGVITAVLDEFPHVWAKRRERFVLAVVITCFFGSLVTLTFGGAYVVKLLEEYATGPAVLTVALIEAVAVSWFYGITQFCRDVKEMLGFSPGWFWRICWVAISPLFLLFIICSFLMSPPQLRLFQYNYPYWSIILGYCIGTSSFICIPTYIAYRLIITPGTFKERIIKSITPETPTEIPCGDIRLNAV

DAT = DAT (Homo sapiens, UniProt Q01959); assay: cell-based; parameters: expressed in transfected cells; conditions: hDAT cell line; read-out: DA Uptake, Functional Assays (antagonism, EC50)
Sequence of DAT (Q01959 whole entry): as the sequence (Q01959 whole entry) above

[3] = biological target: T1, norepinephrine transporter; assay: Functional activity, norephinephrine uptake inhibition in MDCK cell lines; format: cell-based
serotonin transporter [4] = biological target: T2, serotonin transporter; assay: Functional activity, serotonin uptake inhibition in human HEK-293 cell lines; format: cell-based; parameters: expressed in transfected cells; host or cells: HEK-293; conditions: for pEC50: human HEK-293 cell lines, read-out: 5-HT Uptake, Functional Assays (antagonism, EC50)
rats [5] = format: in vivo, rat; conditions: rat, in vivo
Protocol: The animals were preconditioned in a pretest session, where the rats were individually forced to swim inside a vertical plexiglass cylinder containing water maintained at 19-20° C. […] Twenty four hours later, the compounds were administered intraperitoneal to the animals. One hour after administration of the test compound, animals were put back into the cylinder containing water. The total duration of immobility was measured during the last 4 minutes of a 6 minute test.
(§2) The results are expressed as the percentage of variation of the total duration of immobility calculated from the mean value of the vehicle-treated group (% variation=[(immobility duration of vehicle-immobility duration of test compound)/(immobility duration of vehicle)]×100%).

rats [6] = assay: Behavioral despair assay in rats, 3 i.p. injections (Example 143); format: in vivo, rat; conditions: 30 mg/kg, 3 i.p. injections 24 h, 5 h and 1 h before test
Description: The objective of this study was to assess the antidepressant effects of test compounds 124, 125, 126, and 127 in the behavioral despair assay in rats according to the methods described by Porsolt R. D., Anton G., Blavet N., Jalfre M., Behavioural despair in rats: a new model sensitive to antidepressant treatment, Eur. J. Pharmacol., 1978, 47, 379-391. The animals were preconditioned in a pretest session, where the rats were individually forced to swim inside a vertical plexiglass cylinder containing water maintained at 19-20° C. After 15 minutes in the water, they were allowed to dry for 15 minutes in a heated enclosure. Twenty four hours later, they were replaced in the cylinder and the total duration of immobility was measured during a 5 minute test (test session). The test compounds and vehicle were administered as a series of 3 intraperitoneal injections 24 h, 5 h and 1 h before the 5 minute test on the second day.
as §2

## OC[C@H]1[C@@H](COc2ccc(C(F)(F)F)cc2)CCCN1CC1(c2ccc(Cl)cc2)CCC1 (single isomer, unassigned) [compound 131, cis-[1-[1-(4-chloro-phenyl)-cyclobutylmethyl]-3-(4-trifluoromethyl-phenoxymethyl)-piperidin-2-yl]-methanol]
mouse; 30 mg/kg i.v.
  tolerability and mortality after 72 h: well tolerated
Dopamine transporter
  IC50: < 100 nM
[1]
  IC50: < 1000 nM
rat; 30 mg/kg i.v.
  tolerability and mortality after 72 h: well tolerated
Serotonin transporter [2]
  pIC50: > 6.00

## OC[C@H]1[C@@H](COc2ccc(C(F)(F)F)cc2)CCCN1CC1(c2ccc(Cl)cc2)CCC1 (racemic) [compound 82, cis-[1-[1-(4-chloro-phenyl)-cyclobutylmethyl]-3-(4-trifluoromethyl-phenoxymethyl)-piperidin-2-yl]-methanol]
DAT
  pEC50: > 7.00
Dopamine transporter
  IC50: < 100 nM
[1]
  IC50: < 1000 nM
Serotonin transporter [2]
  pIC50: > 6.00
[3]
  pEC50: > 6.00

## O=C(CN1CCC[C@H](COc2ccc(C(F)(F)F)cc2)C1)C1(c2ccc(Cl)cc2)CCC1 [compound 123, S-1-[1-(4-Chloro-phenyl)-cyclobutyl]-2-[3-(4-trifluoromethyl-phenoxymethyl)-piperidin-1-yl]-ethanone]
DAT
  pEC50: > 8.00
Serotonin transporter [4]
  pEC50: > 6.00
Dopamine transporter
  IC50: < 10 nM
[1]
  IC50: < 1000 nM
Serotonin transporter [2]
  pIC50: > 6.00
[3]
  pEC50: > 6.00

## Clc1ccc(C2(CN3CCC[C@@H](CNc4ccccc4)C3)CCC2)cc1 [compound 28, {1-[1-(4-Chloro-phenyl)-cyclobutylmethyl]-piperidin-3-R-ylmethyl}-phenyl-amine]
DAT
  pEC50: > 7.00
Serotonin transporter [4]
  pEC50: > 6.00
Dopamine transporter
  IC50: < 1000 nM
[1]
  IC50: < 1000 nM
Serotonin transporter [2]
  pIC50: > 6.00
[3]
  pEC50: > 6.00

## CN1Cc2c(N)cccc2C(c2ccccc2)C1 (stereo not shown) [nomifensine, reference compound]
Rats [5]
  % variation of the total duration of immobility: 78%

## OC(CN1CCCC(COc2ccc(C(F)(F)F)cc2)C1)C1(c2ccccc2OC(F)(F)F)CCC1 (single isomer, unassigned) [compound 224, 1-[1-(2-Trifluoromethoxy-phenyl)-cyclobutyl]-2-[3-(4-trifluoromethyl-phenoxymethyl)-piperidin-1-yl]-ethanol]
DAT
  pEC50: < 6.00
Serotonin transporter [4]
  pEC50: > 6.00
Dopamine transporter
  IC50: > 1000 nM
[1]
  pIC50: < 6.00
Serotonin transporter [2]
  pIC50: < 6.00
[3]
  pEC50: < 6.00

## CC(Oc1ccc(C(F)(F)F)cc1)C1CCCN(CC2(c3ccc(Cl)cc3)CCC2)C1 (stereo not shown) [compound 99, 1-[1-(4-chloro-phenyl)-cyclobutylmethyl]-3-[1-(4-trifluoromethyl-phenoxy)-ethyl]-piperidine]
DAT
  pEC50: > 8.00
Serotonin transporter [4]
  pEC50: < 6.00
Dopamine transporter
  IC50: < 100 nM
[1]
  IC50: < 1000 nM
Serotonin transporter [2]
  pIC50: > 6.00
[3]
  pEC50: > 6.00

## OC[C@H]1[C@@H](COc2ccc(C(F)(F)F)cc2)CCCN1CC1(c2ccc(Cl)cc2)CCC1 (single isomer, unassigned) [compound 132, cis-[1-[1-(4-chloro-phenyl)-cyclobutylmethyl]-3-(4-trifluoromethyl-phenoxymethyl)-piperidin-2-yl]-methanol]
mouse; 30 mg/kg i.v.
  tolerability and mortality after 72 h: well tolerated
Dopamine transporter
  IC50: < 10 nM
[1]
  IC50: < 100 nM
rat; 30 mg/kg i.v.
  tolerability and mortality after 72 h: well tolerated
Serotonin transporter [2]
  pIC50: > 6.00

## Clc1ccc(C2(CN3CCCC(COc4ccc5c(c4)OCO5)C3)CCC2)cc1 (stereo not shown) [compound 83]
DAT
  pEC50: > 8.00
Serotonin transporter [4]
  pEC50: > 7.00
Dopamine transporter
  IC50: < 100 nM
[1]
  IC50: < 1000 nM
Serotonin transporter [2]
  pIC50: > 6.00
[3]
  pEC50: > 6.00

## OC(CN1CCC[C@@H](CCc2ccccc2)C1)c1ccc(Cl)cc1 (stereo partly shown) [compound 233]
DAT
  pEC50: > 8.00
Serotonin transporter [4]
  pEC50: > 8.00
Dopamine transporter
  IC50: < 10 nM
[1]
  IC50: < 100 nM
Serotonin transporter [2]
  pIC50: > 8.00
[3]
  pEC50: > 8.00

## FC(F)(F)c1ccc(OCC2CN(CC3(c4ccc(Cl)cc4)CCC3)CCO2)cc1 (stereo not shown) [compound 102]
DAT
  pEC50: > 8.00
Serotonin transporter [4]; 5-HT Uptake, Functional Assays (antagonism, EC50, nM)
  EC50: > 1000 nM
Dopamine transporter
  IC50: < 100 nM
[1]
  IC50: > 1000 nM
Serotonin transporter [2]; 5-HT Uptake, Uptake Profile (IC50, nM)
  IC50: > 1000 nM
[3]
  pEC50: > 8.00

## OC(CN1CCCC(CCc2ccccc2)C1)c1ccc(Cl)cc1 (single isomer, unassigned) [compound 143, 1-(4-Chloro-phenyl)-2-(3-phenethyl-piperidin-1-yl)-ethanol]
mouse; 5 mg/kg i.v.
  tolerability and mortality after 72 h: tolerated
Dopamine transporter
  IC50: < 100 nM
[1]
  IC50: < 100 nM
rat; 5 mg/kg i.v.
  tolerability and mortality after 72 h: tolerated
Serotonin transporter [2]
  pIC50: > 8.00

## O=C(CN1CCC[C@@H](COc2ccc(C(F)(F)F)cc2)C1)C1(c2ccc(Cl)cc2)CCC1 [compound 128, S-1-[1-(4-Chloro-phenyl)-cyclobutyl]-2-[3-(4-trifluoromethyl-phenoxymethyl)-piperidin-1-yl]-ethanone]
DAT
  pEC50: > 8.00
Serotonin transporter [4]
  pEC50: > 6.00
Dopamine transporter
  IC50: < 100 nM
[1]
  IC50: < 1000 nM
Serotonin transporter [2]
  pIC50: > 6.00
[3]
  pEC50: > 6.00

## Fc1ccc(OCC2CCCN(CC3(c4ccc(Cl)cc4)CCC3)C2)cc1 (stereo not shown) [compound 86, 1-[1-(4-Chloro-phenyl)-cyclobutylmethyl]-3-(4-fluoro-phenoxmethyl)-piperidine]
DAT
  pEC50: > 8.00
Serotonin transporter [4]
  pEC50: > 6.00
Dopamine transporter
  IC50: < 100 nM
[1]
  IC50: < 1000 nM
Serotonin transporter [2]
  pIC50: > 6.00
[3]
  pEC50: > 6.00

## OC(CN1CCCC(CCc2ccccc2)C1)c1ccc(Cl)cc1 (single isomer, unassigned) [compound 144, 1-(4-Chloro-phenyl)-2-(3-phenethyl-piperidin-1-yl)-ethanol]
mouse; 5 mg/kg i.v.
  tolerability and mortality after 72 h: tolerated
Dopamine transporter
  IC50: < 10 nM
[1]
  IC50: < 100 nM
rat; 5 mg/kg i.v.
  tolerability and mortality after 72 h: tolerated
Serotonin transporter [2]
  pIC50: > 8.00

## FC(F)(F)c1ccc(COC[C@H]2CCCN(CC3(c4ccc(Cl)cc4)CCC3)C2)cc1 [compound 129, S-1-[1-(4-Chloro-phenyl)-cyclobutylmethyl]-3-(4-trifluoromethyl-benzyloxymethyl)-piperidine]
DAT
  pEC50: > 8.00
Serotonin transporter [4]
  pEC50: > 7.00
mouse; 20 mg/kg i.v.
  tolerability after 72 h: well tolerated
Dopamine transporter
  IC50: < 10 nM
[1]
  IC50: < 100 nM
rat; 30 mg/kg i.v.
  tolerability and mortality after 72 h: well tolerated
Serotonin transporter [2]
  pIC50: < 6.00
[3]
  pEC50: > 7.00

## CN(C)CCCN1c2ccccc2CCc2ccccc21 [Imipramine]
Rats [6]
  % variation of the total duration of immobility: 55%

## OC(CN1CCCC(COc2ccc(C(F)(F)F)cc2)C1)C1(c2ccccc2OC(F)(F)F)CCC1 (single isomer, unassigned) [compound 225, 1-[1-(2-Trifluoromethoxy-phenyl)-cyclobutyl]-2-[3-(4-trifluoromethyl-phenoxymethyl)-piperidin-1-yl]-ethanol]
DAT
  pEC50: < 6.00
Serotonin transporter [4]
  pEC50: < 6.00
Dopamine transporter
  IC50: < 10 nM
[1]
  pIC50: < 6.00
Serotonin transporter [2]
  pIC50: > 6.00
[3]; read-out: NE Uptake, Functional Assays (antagonism, EC50), MDCK cell lines
  pEC50: < 6.00

## FC(F)(F)c1ccc(COC[C@@H]2CCCN(CC3(c4ccc(Cl)cc4)CCC3)C2)cc1 [compound 130, R-1-[1-(4-Chloro-phenyl)-cyclobutylmethyl]-3-(4-trifluoromethyl-benzyloxymethyl)-piperidine]
DAT
  pEC50: > 8.00
Serotonin transporter [4]
  pEC50: < 6.00
mouse; 30 mg/kg i.v.
  tolerability and mortality after 72 h: well tolerated
Dopamine transporter
  IC50: < 100 nM
[1]
  IC50: < 1000 nM
rat; 30 mg/kg i.v.
  tolerability and mortality after 72 h: well tolerated
Serotonin transporter [2]
  pIC50: > 6.00
[3]
  pEC50: > 7.00
